Data as given in the supplement of paper PMC10702517.
± gives the standard deviation.

Legend:
[1] = chemical recovery by SPE of plasma after PDMS sampling; higher = better extraction; conditions: pooled human plasma, extraction method: HLB SPE of plasma after PES
[2] = chemical recovery from spiked human plasma; higher = better extraction; conditions: pooled human plasma
[3] = chemical recovery into PDMS from spiked human plasma; higher = better extraction; conditions: pooled human plasma, extraction method: PES with PDMS
[4] = extraction method: SPE only (HLB 96-well), PES comparison experiment
[5] = extraction method: PES+SPE (3 d PDMS equilibration then HLB SPE)
[6] = extraction method: SPE only (HLB 96-well)
[7] = extraction method: solvent precipitation (ACN + hexane)
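Throughout, for chemical recovery by SPE of plasma after PDMS sampling: over 400 spiked chemicals quantified by LC-HRMS or GC-HRMS via internal standard calibration, recovery relative to spike mix added to unspiked plasma extract to correct matrix effects.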

SMILES | chemical recovery by SPE of plasma ([1]; equilibration time (d): 1) | chemical recovery by SPE of plasma ([1]; equilibration time (d): 3) | chemical recovery by SPE of plasma ([1]; equilibration time (d): 6) | chemical recovery [2, 4] | chemical recovery into PDMS ([3]; equilibration time (d): 1) | chemical recovery into PDMS ([3]; equilibration time (d): 3) | chemical recovery into PDMS ([3]; equilibration time (d): 6) | chemical recovery [2, 5] | chemical recovery [2, 6] | chemical recovery [2, 7]
Clc1ccc(Cl)c(-c2ccccc2Cl)c1 [PCB18] | 0.716 ± 0.48% | 0.693 ± 0.67% | 0.249 ± 0.43% | 10 ± 1.9% | 48.2 ± 2.5% | 50.3 ± 10% | 46.5 ± 10% |  |  | 
Clc1ccc(Cl)c(-c2cccc(Cl)c2Cl)c1 [PCB44] | 1.35 ± 0.87% | 1.34 ± 0.13% | 1.42 ± 0.29% | 18.4 ± 4% | 83.5 ± 2.1% | 90.2 ± 12% | 99.1 ± 11% | 44 ± 11% | 3.94 ± 0.74% | 
Clc1ccc(Cl)c(-c2cc(Cl)c(Cl)cc2Cl)c1 [PCB101] | 1.75 ± 1.3% | 1.62 ± 0.22% | 1.45 ± 0.38% | 14 ± 2.6% | 88.4 ± 5.7% | 98.4 ± 14% | 96.9 ± 3.5% | 54.76 ± 0.33% | 1.78 ± 0.57% | 91.2 ± 10%
Clc1ccc(-c2cc(Cl)c(Cl)cc2Cl)cc1Cl [PCB118] | 2.43 ± 1.6% | 1.87 ± 0.24% | 1.71 ± 0.54% | 3.8 ± 7.6% | 74.9 ± 4.3% |  |  |  | 0.333 ± 0.1% | 32 ± 1.2%
Clc1cc(Cl)c(-c2ccc(Cl)c(Cl)c2Cl)cc1Cl [PCB138] | 4.29 ± 2.9% | 1.78 ± 0.29% | 1.33 ± 0.48% | 11.2 ± 2.8% | 67.4 ± 9.5% | 91.8 ± 1.4% | 89.4 ± 5.2% | 61.3 ± 12% | 2.27 ± 0.8% | 81.6 ± 6.5%
Clc1cc(Cl)c(-c2c(Cl)ccc(Cl)c2Cl)cc1Cl [PCB149] | 3.35 ± 2.2% | 1.54 ± 0.15% | 1.29 ± 0.33% | 10.4 ± 2% |  | 103 ± 14% | 100 ± 8.1% | 56.86 ± 0.52% | 4.51 ± 1.5% | 91 ± 6.8%
Clc1cc(Cl)c(-c2cc(Cl)c(Cl)cc2Cl)cc1Cl [PCB153] | 4.72 ± 3% | 2.08 ± 0.28% | 1.44 ± 0.58% | 10.3 ± 2.5% | 55.1 ± 6.8% | 86.4 ± 3.6% | 82.2 ± 2.6% | 62.9 ± 9% | 1.64 ± 0.63% | 77.6 ± 3.5%
Clc1cc(Cl)c(-c2cc(Cl)c(Cl)c(Cl)c2Cl)cc1Cl [PCB180] | 4.51 ± 2.9% | 3.71 ± 1% | 1.43 ± 0.49% |  |  | 67.8 ± 8% | 73.3 ± 5.7% | 40.2 ± 2.1% | 1.45 ± 0.68% | 
Clc1cc(-c2cc(Cl)c(Cl)c(Cl)c2Cl)c(Cl)c(Cl)c1Cl [PCB194] | 3.6 ± 2.3% | 5.05 ± 1.1% | 2.4 ± 0.65% |  |  | 54.4 ± 6.3% | 63.4 ± 5.4% | 38.3 ± 2.4% | 0.915 ± 0.53% | 2.72 ± 0.18%
Fc1ccc([C@@H]2CCNC[C@H]2COc2ccc3c(c2)OCO3)cc1 [Paroxetine] | 2.65 ± 0.22% | 3.11 ± 0.29% | 2.27 ± 0.16% | 42.8 ± 9.2% | 0.404 ± 0.21% | 0.313 ± 0.1% | 0.637 ± 0.5% | 3.9 ± 1.1% | 63.1 ± 3.8% | 61.7 ± 1.7%
CCC(CC)Nc1c([N+](=O)[O-])cc(C)c(C)c1[N+](=O)[O-] [Pendimethalin] |  | 0.1 ± 0.17% |  | 32.3 ± 7.6% | 45.8 ± 3% | 46.4 ± 4.9% | 47.5 ± 6.3% |  | 39 ± 11% | 87.6 ± 9.3%
CC(=O)CCCCn1c(=O)c2c(ncn2C)n(C)c1=O [Pentoxifylline] | 37.9 ± 5.9% | 33.6 ± 3.5% | 25.1 ± 4.3% | 52.1 ± 4.9% | 17.2 ± 0.99% | 24.5 ± 3.9% | 27 ± 2.1% | 57.2 ± 6.1% | 46.9 ± 3.7% | 76.5 ± 3.2%
c1cc2cccc3c4cccc5cccc(c(c1)c23)c54 [Perylene] | 0.65 ± 0.62% | 1.03 ± 0.53% | 1.2 ± 0.41% |  | 73.8 ± 6.2% | 71.9 ± 9.9% | 79.5 ± 6% |  | 1.66 ± 0.56% | 64.2 ± 5.1%
CCOCCN(C(=O)CCl)C(=C(C)C)c1ccccc1 [Pethoxamid] |  | 0.187 ± 0.32% |  | 49.5 ± 6.9% | 41 ± 2.5% | 43.5 ± 3.3% | 43.2 ± 1.5% |  |  | 56.3 ± 2.8%
O=S(=O)(O)c1ccc2[nH]c(-c3ccccc3)nc2c1 [Phenylbenzimidazole sulfonic acid] | 42.2 ± 5.2% | 49 ± 1.8% | 45.8 ± 8.4% | 52 ± 5.8% | 0.124 ± 0.24% |  |  | 43.2 ± 2.9% | 36.9 ± 3.3% | 27.9 ± 3.1%
CO/C=C(/C(=O)OC)c1ccccc1COc1cccc(C(F)(F)F)n1 [Picoxystrobin] | 1.61 ± 0.23% | 2.06 ± 0.34% | 0.862 ± 0.75% | 47.8 ± 7.1% | 47 ± 3.2% | 48.5 ± 5.8% | 48.7 ± 2.7% |  | 38.3 ± 2.8% | 63.7 ± 4.3%
O=C(/C=C/C=C/c1ccc2c(c1)OCO2)N1CCCCC1 [Piperine] | 1.77 ± 0.44% | 1.85 ± 0.37% | 0.965 ± 0.074% | 56.1 ± 7.1% | 34.8 ± 3.2% | 39.3 ± 4.2% | 36.6 ± 1.7% |  | 40.7 ± 2.7% | 83.6 ± 4%
CCCCOCCOCCOCc1cc2c(cc1CCC)OCO2 [Piperonyl butoxide] | 0.249 ± 0.12% | 0.337 ± 0.29% | 0.24 ± 0.013% | 39.5 ± 6.4% | 46.4 ± 3.2% | 48.7 ± 3.9% | 46 ± 2.6% |  |  | 
Cc1nc(N(C)C)nc(OC(=O)N(C)C)c1C [Pirimicarb] | 6.05 ± 0.55% | 6.09 ± 1% | 4.09 ± 0.28% | 41.4 ± 5.3% | 29.3 ± 1.2% | 33.3 ± 1.8% | 34 ± 1.7% | 55.6 ± 8% | 34.3 ± 1.5% | 64.5 ± 2.5%
CCN(CC)c1nc(C)cc(OP(=S)(OC)OC)n1 [Pirimiphos-methyl] | 0.602 ± 0.13% | 0.453 ± 0.41% | 0.275 ± 0.24% | 42.9 ± 8.2% | 29.7 ± 4.3% | 33.5 ± 3.9% | 32.1 ± 0.42% |  | 36.4 ± 3.4% | 68.8 ± 5.2%
C[C@]12C=CC(=O)C=C1CC[C@@H]1[C@@H]2C(=O)C[C@@]2(C)[C@H]1CC[C@]2(O)C(=O)CO [Prednisone] | 41.6 ± 4.3% | 43.7 ± 5.1% | 41.1 ± 2.4% | 45.5 ± 5.8% |  | 0.176 ± 0.18% | 0.265 ± 0.091% |  |  | 
CCCNCCOc1c(Cl)cc(Cl)cc1Cl [Prochloraz BTS403-48] | 0.247 ± 0.057% | 0.287 ± 0.11% | 0.165 ± 0.0069% | 46.2 ± 5.1% | 0.602 ± 0.13% | 0.604 ± 0.12% | 0.862 ± 0.22% | 1.17 ± 0.37% | 47.1 ± 2% | 71.2 ± 3%
CC(C)N(C(=O)CCl)c1ccccc1 [Propachlor] | 1.58 ± 0.41% | 2.49 ± 0.44% | 1.58 ± 0.092% | 41.4 ± 7.8% | 31.9 ± 1.8% | 34.7 ± 3.9% | 35.3 ± 2.5% |  | 28.6 ± 2.1% | 45.1 ± 10%
CCCC1COC(Cn2cncn2)(c2ccc(Cl)cc2Cl)O1 (stereo not drawn) [Propiconazole] | 0.277 ± 0.24% | 0.384 ± 0.17% | 0.117 ± 0.052% | 43.1 ± 6.8% | 38.2 ± 2.5% | 41 ± 3.7% | 40.7 ± 1.6% |  |  | 70.3 ± 3.4%
